Literature values, collected in patent US20210259278A1, “CHEWING GUM CONTAINING VITAMIN C” (priority 2018, published 2021).

Tested on: nausea in humans

Q: For `O=C1O[C@H]([C@@H](O)CO)C(O)=C1O` [vitamin C, L-(+)-ascorbic acid], which treatment of nausea (administration of vitamin C, for example in connection with seasickness) is on record?
A: found to be effective

Q: What about the “prevention of the occurrence of nausea in all test subjects” value (vitamin C alone) of the same molecule?
A: could not reliably prevent the occurrence of nausea in all test subjects
